ChEMBL document CHEMBL1144580, “Screening of alpha-helical peptide ligands controlling a calcineurin-phosphatase activity” (Bioorg Med Chem Lett, 2007)
Calls of active or inactive are those of the source. The calls are words filed in the database; no cut-off is given here.

What was measured:
Homo sapiens [1] = organism: Homo sapiens; experiment: Inhibition of calcineurin phosphatase activity in absence of calmodulin at 1 uM
Homo sapiens [2] = organism: Homo sapiens; experiment: Inhibition of calcineurin phosphatase activity in presence of calmodulin at 1 uM

| Activity (Homo sapiens [1]) | Activity (Homo sapiens [2]) | Compound |
| --- | --- | --- |
| inactive | Dose-dependent effect | H-LKKLIRLFTKLLKL-OH |
| inactive | Dose-dependent effect | H-LKKLIRLAYKLLKL-OH |
| inactive | Dose-dependent effect | H-LKKLLKLLKKLLKL-OH |
| inactive | Active | CC(C)C[C@H](NC(=O)[C@H](CCCCN)NC(=O)[C@H](CC(C)C)NC(=O)[C@H](CC(C)C)NC(=O)[C@H](CCCCN)NC(=O)[C@H](Cc1ccc(O)cc1)NC(=O)[C@H](Cc1ccccc1)NC(=O)[C@H](CC(C)C)NC(=O)[C@H](CCCNC(=N)N)NC(=O)[C@H](C)NC(=O)[C@H](CC(C)C)NC(=O)[C@H](CCCCN)NC(=O)[C@H](CCCCN)NC(=O)[C@@H](N)CC(C)C)C(=O)O |
